Results: patent US20250161249A1, “USE OF PHENYLLACTIC ACID IN INHIBITING HELICOBACTER PYLORI INFECTION” (Zhejiang Gongshang University, priority 2022, published 2025)
Converted amounts (≈) assume the structure as drawn. “And” between values parts separate entries of the source, which are not always exact repeats. Equal values may be shown once. “Also recorded” adds a separate entry of the source.

Experiments:
H. pylori ZJC03 [1] = assay: Antimicrobial susceptibility test of H. pylori ZJC03 (E-test paper); assay type: cell-based, Helicobacter pylori; details: clinical strain H. pylori ZJC03, E-test paper
Method: The sensitivity of H. pylori ZJC03 was tested by using an E-text test paper.

[2] = tested on: gastric mucosal injury caused by H. pylori infection; assay: Histopathological observation (H&E) of gastric tissues of H. pylori infected mice; assay type: in vivo, C57BL/6J mice; details: phenyllactic acid 0.8 mg/mL, 400 μL gavage daily 4 weeks, antibiotics 400 μL daily 10 days
Method: After one week of acclimation, mice were randomly divided into 4 groups: ZC, ZH, ZP and ZA. The mice in the groups were treated as follows: ZC group (15 mice): every mouse was gavaged once every other day with 400 μL of a modified Brucella broth medium for 2 weeks, followed by daily gavage of 400 μL of ultrapure water every day for 4 weeks. […] The bacterial content of the H. pylori ZJC03 suspension was 10^8 CFU/mL. After the molding, all the mice in each group were sacrificed by cervical dislocation. Gastric mucosa samples were washed with PBS and collected aseptically. The stomach contents were frozen in liquid nitrogen and subsequently stored at −80° C. for testing in Examples 8-10. The gastric mucosa was fixed in a 4% paraformaldehyde (PFA) buffer solution for 24 h at room temperature. After the treatment, the stomach tissue was embedded with an EG 1160 paraffin machine. The paraffin block was placed in an RM 2235 rotary microtome for sectioning (5 μm), and the sections were stained with hematoxylin and eosin (H&E). The stained sections were observed under a light microscope and photographed (NIKON Eclipse Ci, Japan); and the imaging system was: NIKON digital sight DS-FI2, and the photographic magnification was: 400× and 200×.

H. pylori ZJC03 [3] = assay: Ultra microstructure observation (SEM, TEM, negative-stain TEM); assay type: cell-based, Helicobacter pylori; details: at the MIC
H. pylori [4] = assay: Effects of sub-inhibitory concentrations on growth curves of H. pylori; assay type: cell-based, Helicobacter pylori
Method: According to the determination of the bacteriostatic ability, the effects of phenyllactic acid on growth curves were analyzed. An H. pylori suspension cultured overnight was inoculated into a sterilized modified Brucella broth medium. The concentration was adjusted such that the initial inoculum size of the bacteria was 1×10^8 CFU/mL. The phenyllactic acid was added at the final concentrations of ⅛ MIC, ¼ MIC, ½ MIC and MIC, and no drug was added to the control group. The mixed solution was placed in a microaerobic environment at 37° C. for 120 h, the OD560 value was determined every other 12 h, and the changes of the growth curves at sub-inhibitory concentrations were observed and recorded.

[5] = target: T1, urease activity of H. pylori ZJC03 (Helicobacter pylori, UniProt P69996); assay: Urease activity of H. pylori, phenol red method; assay type: biochemical; details: co-cultured 48 h
T1 construct: A total of 50 μL of the H. pylori culture solution and 50 μL of the phenyllactic acid; endogenous in cells; host or cells: Helicobacter pylori ZJC03 (live culture, 1×10^8 CFU/mL)
T1 sequence (P69996 whole entry): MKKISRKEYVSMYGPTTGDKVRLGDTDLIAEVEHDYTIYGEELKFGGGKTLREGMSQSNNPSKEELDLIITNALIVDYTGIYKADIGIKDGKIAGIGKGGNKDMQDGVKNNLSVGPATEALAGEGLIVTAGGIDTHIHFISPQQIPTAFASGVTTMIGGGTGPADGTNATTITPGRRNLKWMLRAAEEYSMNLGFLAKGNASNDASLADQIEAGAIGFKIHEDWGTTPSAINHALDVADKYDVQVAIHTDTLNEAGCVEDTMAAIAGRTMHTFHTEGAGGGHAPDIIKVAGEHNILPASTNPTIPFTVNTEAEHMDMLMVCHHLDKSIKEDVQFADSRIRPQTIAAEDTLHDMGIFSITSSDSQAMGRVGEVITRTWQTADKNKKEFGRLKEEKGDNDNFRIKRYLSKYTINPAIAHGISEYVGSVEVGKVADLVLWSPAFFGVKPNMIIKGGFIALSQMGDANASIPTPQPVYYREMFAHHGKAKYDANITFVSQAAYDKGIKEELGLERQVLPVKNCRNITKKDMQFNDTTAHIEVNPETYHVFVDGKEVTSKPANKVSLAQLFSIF
T1 sequence (P14916 whole entry, further chain): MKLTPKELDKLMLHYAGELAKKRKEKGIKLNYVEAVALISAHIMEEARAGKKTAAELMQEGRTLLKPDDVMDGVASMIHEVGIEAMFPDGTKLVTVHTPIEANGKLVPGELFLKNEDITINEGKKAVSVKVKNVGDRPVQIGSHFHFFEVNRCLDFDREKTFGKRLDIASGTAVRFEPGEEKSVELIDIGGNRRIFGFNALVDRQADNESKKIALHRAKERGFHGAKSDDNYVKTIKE

[6] = tested on: IFN-γ, IL-6, IL-1β and IL-10 in the stomach tissue; assay: RT-qPCR of inflammatory factors in gastric mucosal tissues of H. pylori infected mice; assay type: in vivo, C57BL/6J mice; details: gavage
Method: After one week of acclimation, mice were randomly divided into 4 groups: ZC, ZH, ZP and ZA. The mice in the groups were treated as follows: […] After the molding, all the mice in each group were sacrificed by cervical dislocation. Gastric mucosa samples were washed with PBS and collected aseptically. The stomach contents were frozen in liquid nitrogen and subsequently stored at −80° C. for testing in Examples 8-10. The quantitative analysis of IFN-γ, IL-6, IL-1β and IL-10 in the stomach tissue was performed by RT-qPCR. Total RNA (100-500 ng/μL) was isolated from mouse stomach tissue samples according to the instructions of an RNA extraction kit, followed by reverse transcription of RNA into cDNA using the kit. The levels of each gene were normalized using GAPDH as an internal control. The RT-qPCR assay was performed according to the following thermal cycle program: pre-denaturation at 95° C. for 10 min, 40 cycles of 95° C. for 15 s and 60° C. for 30 s, and the melting curve was from 60° C. to 95° C. with a temperature increase of 0.3° C. every 15 s and the fluorescence signal was collected once, and a 2^−ΔΔCt method was used for calculation.

H. pylori [7] = assay: Determination of minimum inhibitory concentration (agar dilution method); assay type: cell-based, Helicobacter pylori; details: 37° C., 48 h, microaerobic
H. pylori ZJC03 [8] = assay: Bacteriostasis experiment by Kirby-Bauer method (inhibition zone); assay type: cell-based, Helicobacter pylori; details: 6 mm filter paper disk, 72 h
Method: Preparation of different concentrations of phenyllactic acid: phenyllactic acid was diluted two-fold to 40 mg/mL, 20 mg/mL, 10 mg/mL, 5 mg/mL, 2.5 mg/mL and 1.25 mg/mL. The solvent used for dilution was ultrapure water.
Preparation of antimicrobial susceptibility disks: filter paper was made into circular disks with a diameter of 6 mm, subjected to autoclaved sterilization for 15 min and dried. Each circular filter paper disk was completely soaked in phenyllactic acid solutions with different concentrations, and ultrapure water was taken as a blank control to obtain antimicrobial susceptibility disks with different concentrations.
Coating and culture: 100 μL of 10^8 CFU/mL of an H. pylori bacterial solution was evenly coated on a CBA medium and dried. Then the antimicrobial susceptibility disks with different concentrations of the phenyllactic acid were pasted on a plate by tweezers, and this operation was repeated 3 times for disks of each concentration. Then the plate was placed in a culture box (containing a microaerophilic gas-generating pack inside) and statically cultured at 37° C. for 72 h. The size of an inhibition zone (mm) was measured and the measurement result was recorded.

mouse gastric flora = assay: Gastric microbiota analysis by 16S rRNA gene sequencing in H. pylori infected mice; assay type: in vivo, C57BL/6J mice
Method: After one week of acclimation, mice were randomly divided into 4 groups: ZC, ZH, ZP and ZA. The mice in the groups were treated as follows:
ZP group (45 mice): every mouse was gavaged once every other day with 400 μL of the H. pylori ZJC03 bacterial suspension for 2 weeks, followed by daily gavage of 400 μL of phenyllactic acid (at the concentrations of 0.16 mg/mL, 0.32 mg/mL and 0.8 mg/mL respectively, and 15 mice for each concentration) every day for 4 weeks.
ZA group (15 mice): every mouse was gavaged once every other day with 400 μL of the H. pylori ZJC03 bacterial suspension for 2 weeks, followed by 10 days of gavage of combined antibiotics (at the dose of 400 μL per mouse per day), and after 10 days, each mouse continued to be gavaged with 400 μL of ultrapure water for 18 days.
After the molding, all the mice in each group were sacrificed by cervical dislocation. Gastric mucosa samples were washed with PBS and collected aseptically. The stomach contents were frozen in liquid nitrogen and subsequently stored at −80° C. for testing in Examples 8-10.
DNA samples were extracted from the gastric mucosa by a CTAB method, and the quality of DNA extraction was detected by agarose gel electrophoresis, and at the same time, the DNA was quantified by an ultraviolet spectrophotometer. The hypervariable regions V3-V4 of 16S rRNA of bacteria were amplified by using universal primers (341F and 805R). Paired-end sequencing of 2×250 bp was performed using a NovaSeq 6000 sequencer, and DNA extraction and sequencing were completed in the LC-Bio Technologies Co. Ltd.

[9] = gastric mucosa, ZP = 0.8 mg/mL phenyllactic acid, ZA = antibiotic treatment

CC1(C)S[C@@H]2[C@H](NC(=O)[C@H](N)c3ccc(O)cc3)C(=O)N2[C@H]1C(=O)O [Amoxicillin]
Sensitivity of H. pylori ZJC03 to antibiotics (H. pylori ZJC03 [1]): 0.016 µg/mL

O=C(O)C(O)Cc1ccccc1 (stereo not shown) [phenyllactic acid, Phenyllactic acid]
H&E histopathology of gastric mucosa [2]: the tissue structure was substantially normal; also recorded: inflammatory cells basically disappeared
bacterial cell morphology, negative-stain transmission electron microscopy (H. pylori ZJC03 [3]; 5-10 min): The flagella of the bacterial cells fell off
bacterial cell internal structure, transmission electron microscopy (H. pylori ZJC03 [3]; 4 h): the cell walls were separated from the cell membranes
bacterial cell morphology, scanning electron microscopy (H. pylori ZJC03 [3]; 4 h): most bacterial cells appeared to be disintegrated
growth of H. pylori (growth curve, OD560) (H. pylori [4]; MIC, 48 h, 72 h, 96 h and 120 h): completely inhibited; also recorded: significantly inhibited
growth of H. pylori (growth curve, OD560) (H. pylori [4]; ¼ MIC): a certain bactericidal effect
growth of H. pylori (growth curve, OD560) (H. pylori [4]; ½ MIC, 48 h, 72 h, 96 h and 120 h): significantly inhibited
growth of H. pylori (growth curve, OD560) (H. pylori [4]; ⅛ MIC): basically not inhibited
inhibitory effect on urease activity ([5]; at 0.25 MIC): no significant inhibitory effect
inhibitory effect on urease activity ([5]; at 0.5 MIC): no significant inhibitory effect
inhibition rate of urease activity ([5]; at 2 MIC): 80.13%±1.18%
inhibition rate of urease activity ([5]; at the MIC): 43.01%+2.11% and 43.01%±2.11%
IFN-γ gene expression in gastric mucosa vs ZH modeling group [6]: significantly decreased; also recorded: significantly reduce
IL-1β gene expression in gastric mucosa vs ZH modeling group [6]: significantly decreased; also recorded: significantly reduce
IL-6 gene expression in gastric mucosa vs ZH modeling group [6]: significantly decreased; also recorded: significantly reduce
IL-10 relative expression level in gastric mucosa vs ZH modeling group [6]: increased without a statistical difference
minimum inhibitory concentration (MIC) (H. pylori [7]): 2500 µg/mL (≈ 15 mM)
Inhibition zone diameter (H. pylori ZJC03 [8]; 1.25 mg/mL solution): no inhibition zone
Inhibition zone diameter (H. pylori ZJC03 [8]; 2.5 mg/mL solution): 6.94 ± 0.95 mm
Inhibition zone diameter (H. pylori ZJC03 [8]; 5 mg/mL solution): 7.51 ± 0.74 mm
Inhibition zone diameter (H. pylori ZJC03 [8]; 10 mg/mL solution): 9.98±0.97 mm
Inhibition zone diameter (H. pylori ZJC03 [8]; 20 mg/mL solution): 12.41 ± 0.14 mm
Inhibition zone diameter (H. pylori ZJC03 [8]; 40 mg/mL solution): 15.35 ± 0.94 mm
effect on the diversity of the gastric flora (mouse gastric flora; ZP group compared with ZA group): no significant effect
decrease of relative abundance of Helicobacter pylori compared with ZH group (mouse gastric flora; after 4 weeks of treatment): 9.46%
gastric flora with significant increases at the genus level (LEfSe, LDA>3) (mouse gastric flora; after 4 weeks of treatment): Prevotella, Lactobacillus, Faecalibaculum, Olsenella, Aerococcus
Chao1 (alpha diversity) (mouse gastric flora; [9]): 464.56
Observed species (alpha diversity) (mouse gastric flora; [9]): 453.6
Shannon (alpha diversity) (mouse gastric flora; [9]): 6.139
Simpson (alpha diversity) (mouse gastric flora; [9]): 0.9287
Helicobacter in the stomach (mouse gastric flora; genus level): significantly inhibit
content / growth of Lactobacillus in the stomach (mouse gastric flora; genus level): improved; also recorded: significantly promote the growth
relative abundance of Lactobacillus in gastric microbiota (mouse gastric flora; genus level): 22.39%
proportion of Proteobacteria in gastric flora vs ZH group (mouse gastric flora; phylum level): significantly decreased
ratio of Bacteroides to Firmicutes in gastric flora (mouse gastric flora; phylum level): increased

CC[C@H]1OC(=O)[C@H](C)[C@@H](O[C@H]2C[C@@](C)(OC)[C@@H](O)[C@H](C)O2)[C@H](C)[C@@H](O[C@@H]2O[C@H](C)C[C@H](N(C)C)[C@H]2O)[C@](C)(OC)C[C@@H](C)C(=O)[C@H](C)[C@@H](O)[C@]1(C)O [Clarithromycin]
Sensitivity of H. pylori ZJC03 to antibiotics (H. pylori ZJC03 [1]): 0.8 µg/mL

CN(C)[C@@H]1C(O)=C(C(N)=O)C(=O)[C@@]2(O)C(O)=C3C(=O)c4c(O)cccc4[C@@](C)(O)[C@H]3C[C@@H]12 [Tetracycline]
Sensitivity of H. pylori ZJC03 to antibiotics (H. pylori ZJC03 [1]): 0.023 µg/mL

Cc1ncc([N+](=O)[O-])n1CCO [Metronidazole]
Sensitivity of H. pylori ZJC03 to antibiotics (H. pylori ZJC03 [1]): insensitive

CC(O)C(=O)O (stereo not shown) [lactic acid]
Inhibition zone diameter (H. pylori ZJC03 [8]; 10 mg/mL solution): no visible inhibition zone
